Measurements: patent publication US20240132479A1, “THERAPEUTIC COMPOUNDS AND USES THEREOF” (Board of Trustees of Michigan State University, priority 2021, published 2024)
In brackets after ≈: the same amount, converted by molar mass. Where two headings read alike, the source gives them in different places.

How the values were obtained:
Mtb H37Rv = assay: MIC determination in microdilution assay, Mtb H37Rv; format: cell-based; settings: Mycobacterium tuberculosis
[1] = system: M. abscessus (ATCC 19977); assay: MIC determination in microdilution assay, M. abscessus; format: cell-based, Mycobacterium abscessus; settings: Mycobacteroides abscessus, ATCC19977; read-out: MIC M. abcessus 19977
[2] = system: M. avium (ATCC 700891 MAC 101); assay: MIC determination in microdilution assay, M. avium; format: cell-based; settings: Mycobacterium avium, ATCC700891
[3] = system: Mycobacterium avium complex (ATCC 700891 MAC 101); assay: Ex vivo efficacy, M. avium; format: cell-based
Protocol: (§1) The compounds of Examples 2, 21A, and 19 were tested for 1) for ex vivo efficacy and 2) cytotoxicity. Ex vivo efficacy was determined by inhibition of Mycobacterium tuberculosis (Mtb) H37Rv, Mycobacterium avium complex (ATCC 700891 MAC 101), and Mycobacterium abscessus (ATCC 19977). Cytotoxicity tests were carried out against three human cell lines, THP-1 (ATCC TIB-202), HepG2 (ATCC HB-8065), and HeLa (ATCC CCL-2), IC50 values were calculated from dose response curves to determine cytotoxicity of test compounds. […] Of the three compounds tested for ex vivo efficacy against NTM strains, there was no activity (>32 mg/L) against M. avium and one compound with activity against M. abscessus. […] These compounds were not cytotoxic (>128 mg/L) against HepG2 and HeLa cells. The compounds average therapeutic index for HepG2 was 12.4-48.3 and 96.7-389 for HeLa.

[4] = system: Mycobacterium abscessus (ATCC 19977); assay: Ex vivo efficacy, M. abscessus; format: cell-based
Protocol: as §1

in vitro = format: cell-based; settings: human
Protocol: as §1

[5] = HeLa cells, read-out: HeLa Cytotoxicity (IC50 μg/ml)
[6] = HepG2 cells, read-out: HepG2 Cytotoxicity (IC50 μg/ml)
[7] = THP-1 cells, read-out: THP-1 Cytotoxicity (IC50 μg/ml)

**Q.** Which results are given for `Cc1cc2nc(SCC(=O)N(C(C)C)C(C)C)[nH]c2cc1C` [Example 2, 2-[(5,6-dimethyl-1H-1,3-benzodiazol-2-yl)sulfanyl]-N,N-bis(propan-2-yl)acetamide]?
**A.** MIC (Mtb H37Rv): 0.5 µg/mL (≈ 1.57 µM); MIC [1]: 4 µg/mL (≈ 12.5 µM); MIC [2]: > 64 µg/mL; M. avium ex vivo efficacy (>90% inhibition μg/ml) [3]: 0.5 µg/mL; M. abscessus ex vivo efficacy (>90% inhibition μg/ml) [4]: 0.25 µg/mL; IC50 (in vitro; [5]): 4 µg/mL (≈ 12.5 µM); IC50 (in vitro; [6]): 0.5 µg/mL (≈ 1.57 µM); IC50 (in vitro; [7]): 0.5 µg/mL (≈ 1.57 µM); melting point: 172 °C

**Q.** With `Cc1cc2nc(CCC(=O)N(C(C)C)C(C)C)[nH]c2cc1C` [Example 21A] as the compound, how does the MIC (Mtb H37Rv) read?
**A.** Its MIC is 0.25 µg/mL (≈ 0.829 µM).

**Q.** And the MIC [1]?
**A.** Its MIC is 2 µg/mL (≈ 6.63 µM).

**Q.** What about the MIC [2] of the same compound?
**A.** The MIC was 16 µg/mL (≈ 53.1 µM).

**Q.** And the “M. avium ex vivo efficacy (>90% inhibition μg/ml)” value [3]?
**A.** The value was 0.25 µg/mL.

**Q.** What about the “M. abscessus ex vivo efficacy (>90% inhibition μg/ml)” value [4] of the same compound?
**A.** The value was 0.25 µg/mL.

**Q.** What about the IC50 (in vitro; [5]) of the same compound?
**A.** The IC50 was 2 µg/mL (≈ 6.63 µM).

**Q.** What about the IC50 (in vitro; [6]) of the same compound?
**A.** The IC50 was no more than 0.125 µg/mL.

**Q.** What about the IC50 (in vitro; [7]) of the same compound?
**A.** The IC50 was no more than 0.125 µg/mL.

**Q.** Which MIC (Mtb H37Rv) does the source give for `CC(C)N(C(=O)CCc1nc2cc(Cl)c(Cl)cc2[nH]1)C(C)C` [Example 19] here?
**A.** Its MIC is no more than 0.125 µg/mL.

**Q.** What about the MIC [1] of the same compound?
**A.** The MIC was 1 µg/mL (≈ 2.92 µM).

**Q.** And the MIC [2]?
**A.** The MIC was 8 µg/mL (≈ 23.4 µM).

**Q.** What about the “M. avium ex vivo efficacy (>90% inhibition μg/ml)” value [3] of the same compound?
**A.** The value was no more than 0.125 µg/mL.

**Q.** What about the “M. abscessus ex vivo efficacy (>90% inhibition μg/ml)” value [4] of the same compound?
**A.** The value was no more than 0.125 µg/mL.

**Q.** And the IC50 (in vitro; [5])?
**A.** The IC50 was 1 µg/mL (≈ 2.92 µM).

**Q.** And the IC50 (in vitro; [6])?
**A.** The IC50 was no more than 0.125 µg/mL.

**Q.** And the IC50 (in vitro; [7])?
**A.** Its IC50 is no more than 0.125 µg/mL.
